Our source for the TGI and GI50 values is PubChem BioAssay (NCI).

The structures appear in SMILES notation.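 All cell lines were grown in 96-well plates and treated with compound for 48 hours. Here, GI50 denotes the concentration required for 50% inhibition of growth. TGI is the concentration that stops growth completely.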

Among the test systems are COLO 205 colon; M14 melanoma; NCI-H460 lung; RXF 393 renal; UACC-62 melanoma; HCT-15 colon; HOP-62 NSCLC; SF-295 CNS; MOLT-4 leukemia; IGROV1 ovarian.
Holding throughout (experiment): growth of human tumour cells (NCI), 48 h

On to `COc1c(OC2OC(CO)C(O)C(O)C2O)cc2c(c1OC)-c1ccc(OC)c(=O)cc1[C@@H](NC(C)=O)CC2` (some centres not stated), for which the TGI was over 100 µM in the assay on COLO 205 colon; over 100 µM in the assay on M14 melanoma; over 100 µM in the assay on NCI-H460 lung; over 90.4 µM in the assay with RXF 393 renal; over 100 µM with UACC-62 melanoma; over 100 µM with HCT-15 colon. In addition, the TGI with HOP-62 NSCLC, in the assay with SF-295 CNS, in the assay on MOLT-4 leukemia and in the assay on IGROV1 ovarian was over 100 µM each time.
Turning to `COC(=O)C(C(=O)C(=O)Nc1ccc(N)cc1[N+](=O)[O-])c1nc2ccc(Cl)cc2[nH]c1=O` (configuration not stated), the TGI with COLO 205 colon, in the assay with M14 melanoma, with NCI-H460 lung, in the assay on RXF 393 renal, in the assay with UACC-62 melanoma and in the assay with HCT-15 colon was over 100 µM each time. The TGI with HOP-62 NSCLC, with SF-295 CNS, with MOLT-4 leukemia and in the assay with IGROV1 ovarian was over 100 µM throughout.
On to `CCCCCCC(=O)CC(=O)C(=O)Nc1ccccc1C`, for which the TGI with COLO 205 colon was over 100 µM; in the assay on M14 melanoma it was over 100 µM; with NCI-H460 lung, over 81.2 µM; in the assay with RXF 393 renal, over 100 µM; in the assay with UACC-62 melanoma, over 100 µM; in the assay with HCT-15 colon, over 66.3 µM. Besides, the TGI in the assay with HOP-62 NSCLC, with SF-295 CNS, with MOLT-4 leukemia and in the assay on IGROV1 ovarian was over 100 µM throughout.
Consider `CCOc1cc[n+](C(=C=[N-])C#N)cc1`, for which the TGI in the assay with COLO 205 colon, in the assay on M14 melanoma, in the assay on NCI-H460 lung, in the assay with RXF 393 renal, with UACC-62 melanoma and with HCT-15 colon was over 100 µM throughout. The TGI in the assay with HOP-62 NSCLC, in the assay with SF-295 CNS, with MOLT-4 leukemia and with IGROV1 ovarian was over 100 µM each time.
As to `Nc1ncnc2c1ncn2C1OC(C(=O)OCCO)C(O)C1O` (configuration not stated), the TGI in the assay on COLO 205 colon, with M14 melanoma, in the assay on NCI-H460 lung, with RXF 393 renal, in the assay on UACC-62 melanoma and in the assay with HCT-15 colon was over 100 µM throughout. Also, the TGI in the assay on HOP-62 NSCLC, in the assay on SF-295 CNS, with MOLT-4 leukemia and with IGROV1 ovarian was over 100 µM in each case.
`COC(=O)[C@]1(C)CC[C@]2(C)CC[C@]3(C)C(=CC(=O)[C@@H]4[C@@]5(C)CCC(=O)NC(C)(C)[C@@H]5CC[C@]43C)[C@@H]2C1`: the GI50 with COLO 205 colon was 17.1 µM; in the assay on M14 melanoma, 19.3 µM; in the assay with NCI-H460 lung, 20.1 µM; in the assay on RXF 393 renal it was 13.5 µM; in the assay on UACC-62 melanoma, 15.3 µM; in the assay on HCT-15 colon, 16.1 µM. In addition, the GI50 with HOP-62 NSCLC is 29 µM; in the assay on SF-295 CNS, 19.4 µM; in the assay on MOLT-4 leukemia it was 10.5 µM; in the assay on IGROV1 ovarian, 26.7 µM. Besides, the TGI was 50.4 µM in the assay with COLO 205 colon; 44.4 µM with M14 melanoma; 58.8 µM in the assay on NCI-H460 lung; 27.5 µM in the assay on RXF 393 renal; 38.2 µM in the assay with UACC-62 melanoma; over 100 µM in the assay on HCT-15 colon. The TGI in the assay on HOP-62 NSCLC was over 100 µM; in the assay with SF-295 CNS it was 43.8 µM; in the assay with MOLT-4 leukemia, 31.6 µM; in the assay on IGROV1 ovarian, over 100 µM.
Regarding `COc1ccc([Se]c2ccc(OC)cc2)cc1`, the TGI in the assay on COLO 205 colon, with M14 melanoma, with NCI-H460 lung, in the assay on RXF 393 renal, in the assay on UACC-62 melanoma and in the assay with HCT-15 colon was over 100 µM each time. Further, the TGI with HOP-62 NSCLC, in the assay on SF-295 CNS, with MOLT-4 leukemia and in the assay on IGROV1 ovarian was over 100 µM each time.
Consider `O=C(CN1CCN(c2ccccn2)CC1)Nc1ccc(Cl)cc1C(=O)c1ccccc1Cl`, for which the GI50 with COLO 205 colon was over 100 µM; with M14 melanoma, 50.9 µM; with NCI-H460 lung it was 93.6 µM; in the assay on RXF 393 renal it was over 100 µM; with UACC-62 melanoma it was 12.8 µM; with HCT-15 colon, 7.85 µM. In addition, the GI50 was 30.5 µM with SF-295 CNS, 5.49 µM with MOLT-4 leukemia and 89.2 µM with IGROV1 ovarian. Moreover, the TGI with COLO 205 colon, with M14 melanoma, with NCI-H460 lung, in the assay with RXF 393 renal, in the assay on UACC-62 melanoma and in the assay with HCT-15 colon was over 100 µM throughout. For the same molecule, the TGI in the assay on SF-295 CNS, in the assay with MOLT-4 leukemia and with IGROV1 ovarian was over 100 µM throughout.
For the molecule `COc1cc[nH]c1/C=C1\C(=O)Nc2ccc([N+](=O)[O-])c(N3CC[C@@H](O)C3)c21`, the GI50 with COLO 205 colon was 0.135 µM; in the assay with M14 melanoma it was 0.399 µM; in the assay with NCI-H460 lung, 0.119 µM; in the assay on RXF 393 renal it was 0.0566 µM; in the assay with UACC-62 melanoma, 0.338 µM; with HCT-15 colon, 0.123 µM. For the same molecule, the GI50 was 0.181 µM in the assay with HOP-62 NSCLC, 0.128 µM in the assay on SF-295 CNS, 0.142 µM in the assay with MOLT-4 leukemia and 0.467 µM with IGROV1 ovarian. Moreover, the TGI in the assay on COLO 205 colon was 0.688 µM; in the assay with M14 melanoma, 1.13 µM; in the assay on NCI-H460 lung, 2.92 µM; in the assay on RXF 393 renal, 0.146 µM; in the assay with UACC-62 melanoma it was 0.762 µM; with HCT-15 colon, 2.92 µM. Also, the TGI with HOP-62 NSCLC amounted to 1.88 µM; with SF-295 CNS it was 3.4 µM; with MOLT-4 leukemia, 2.4 µM; with IGROV1 ovarian it was 4.27 µM.
In the case of `O=C(OCc1ccccc1)c1ccccc1-c1c2ccc(=O)cc-2oc2cc(OCc3ccccc3)ccc12`, the TGI in the assay on COLO 205 colon was found to be 42.8 µM; in the assay with M14 melanoma, 44.7 µM; in the assay on NCI-H460 lung, 35.8 µM; in the assay on RXF 393 renal it was 34 µM; in the assay with UACC-62 melanoma it was 24.6 µM; in the assay with HCT-15 colon, 63.3 µM. Also, the TGI with SF-295 CNS came to 80.3 µM; with MOLT-4 leukemia, 6.44 µM; with IGROV1 ovarian it was 44.3 µM.
